Test results reported in the NIST ThermoML archive (doi:10.1016/j.fluid.2008.02.021).

Tests used:
[1] = for vapor or sublimation pressure: Liquid, Closed cell (Static) method; for Normal melting temperature: Crystal
[2] = excess molar enthalpy (molar enthalpy of mixing); xn = mol fraction of the nth substance listed; conditions: Liquid, Flow calorimetry

CCCCCCC(C)=O [2-octanone]
[1]
Conditions | vapor or sublimation pressure [kPa]
323.15 K | 0.8706
363.15 K | 6.397

Conditions | Normal melting temperature [°C]
[1] | -19.7

CCCCCCC(C)=O [2-octanone] + CCCCCCO
excess molar enthalpy [kcal/mol], [2], 1617 kPa
Conditions | 363.15 K | 413.15 K
x2 = 0.062 | 0.0819 | 0.059
x2 = 0.122 | 0.152 | 0.112
x2 = 0.181 | 0.21 | 0.157
x2 = 0.238 | 0.257 | 0.194
x2 = 0.294 | 0.292 | 0.222
x2 = 0.349 | 0.319 | 0.244
x2 = 0.402 | 0.335 | 0.259
x2 = 0.455 | 0.344 | 0.268
x2 = 0.506 | 0.345 | 0.271
x2 = 0.556 | – | 0.269
x2 = 0.557 | 0.341 | –
x2 = 0.605 | 0.327 | 0.26
x2 = 0.652 | 0.31 | 0.247
x2 = 0.699 | 0.287 | 0.229
x2 = 0.745 | 0.259 | 0.206
x2 = 0.79 | 0.227 | 0.181
x2 = 0.833 | 0.19 | 0.152
x2 = 0.876 | 0.148 | 0.12
x2 = 0.918 | 0.102 | 0.0838
x2 = 0.96 | 0.0525 | 0.0429

OC1CCCCC1 [cyclohexanol]
[1]
Conditions | Normal melting temperature [°C] | vapor or sublimation pressure [kPa]
323.15 K | – | 0.7399
363.15 K | – | 6.882
visual observation | 24.1 | –

OC1CCCCC1 [cyclohexanol] + O=C1CCCCC1
[2]
Conditions | excess molar enthalpy [kcal/mol]
363.15 K, 1651 kPa, x2 = 0.051 | 0.065
363.15 K, 1651 kPa, x2 = 0.102 | 0.124
363.15 K, 1651 kPa, x2 = 0.153 | 0.175
363.15 K, 1651 kPa, x2 = 0.204 | 0.22
363.15 K, 1651 kPa, x2 = 0.254 | 0.255
363.15 K, 1651 kPa, x2 = 0.305 | 0.285
363.15 K, 1651 kPa, x2 = 0.355 | 0.307
363.15 K, 1651 kPa, x2 = 0.406 | 0.321
363.15 K, 1651 kPa, x2 = 0.456 | 0.33
363.15 K, 1651 kPa, x2 = 0.506 | 0.334
363.15 K, 1651 kPa, x2 = 0.555 | 0.328
363.15 K, 1651 kPa, x2 = 0.605 | 0.316
363.15 K, 1651 kPa, x2 = 0.655 | 0.299
363.15 K, 1651 kPa, x2 = 0.705 | 0.275
363.15 K, 1651 kPa, x2 = 0.754 | 0.244
363.15 K, 1651 kPa, x2 = 0.803 | 0.208
363.15 K, 1651 kPa, x2 = 0.853 | 0.164
363.15 K, 1651 kPa, x2 = 0.902 | 0.115
363.15 K, 1651 kPa, x2 = 0.951 | 0.0595
413.15 K, 1582 kPa, x2 = 0.051 | 0.0388
413.15 K, 1582 kPa, x2 = 0.102 | 0.0744
413.15 K, 1582 kPa, x2 = 0.153 | 0.106
413.15 K, 1582 kPa, x2 = 0.203 | 0.134
413.15 K, 1582 kPa, x2 = 0.254 | 0.157
413.15 K, 1582 kPa, x2 = 0.304 | 0.175
413.15 K, 1582 kPa, x2 = 0.355 | 0.19
413.15 K, 1582 kPa, x2 = 0.405 | 0.199
413.15 K, 1582 kPa, x2 = 0.455 | 0.204
413.15 K, 1582 kPa, x2 = 0.505 | 0.206
413.15 K, 1582 kPa, x2 = 0.555 | 0.202
413.15 K, 1582 kPa, x2 = 0.605 | 0.195
413.15 K, 1582 kPa, x2 = 0.655 | 0.183
413.15 K, 1582 kPa, x2 = 0.704 | 0.168
413.15 K, 1582 kPa, x2 = 0.754 | 0.148
413.15 K, 1582 kPa, x2 = 0.803 | 0.126
413.15 K, 1582 kPa, x2 = 0.853 | 0.0985
413.15 K, 1582 kPa, x2 = 0.902 | 0.0681
413.15 K, 1582 kPa, x2 = 0.951 | 0.035

O=C1CCCCC1 [cyclohexanone]
[1]
Conditions | Normal melting temperature [°C] | vapor or sublimation pressure [kPa]
323.15 K | – | 2.23
363.15 K | – | 13.05
visual observation | -27.2 | –

CCCCCCO [hexan-1-ol]
[1]
Conditions | vapor or sublimation pressure [kPa]
323.15 K | 0.7226
363.15 K | 7.229

Conditions | Normal melting temperature [°C]
[1] | -44
